{
  "source": "patent US8975285B2",
  "about": "“P38 MAP kinase inhibitors” (Respivert Ltd., priority 2008, dated 2015)",
  "key": {"[1]": {"test_system": "differentiated U937 cells", "test": "MTT assay in differentiated U937 cells", "format": "cell-based, human", "set-up": "key: Negative: no significant toxic effect observed in MTT assay", "method": "Differentiated U937 cells were pre-incubated with compound for 4 hrs in 5% FCS or 10% FCS for 24 hrs and 72 hr. […] After 1 hr incubation, the media were removed, 200 ul of DMSO added to each well and the plates were shaken lightly for 1 h prior to reading the absorbance at 550 nm. The percentage loss of cell viability was calculated for each well relative to vehicle (0.5% DMSO)-treatment. Consequently an apparent increase in cell viability for drug treatment relative to vehicle is tabulated as a negative percentage."}, "[2]": {"test_system": "LPS-induced neutrophil accumulation in BALF", "test": "LPS-induced neutrophilia in the mouse: duration of action", "format": "in vivo", "details": "intra tracheal dosing, 12 or more hours of pre-dosing, BALF 8 h after LPS", "method": "Non-fasted mice were dosed by the intra tracheal route with either vehicle, or the test substance at the time points (“pre-dose”) indicated with respect to the start of LPS treatment. At T=0, mice were placed into an exposure chamber and exposed to LPS. Eight hours after LPS challenge, animals were under anesthetized, the trachea cannulated and BALF extracted by infusing and withdrawing 1 ml of PBS into the lungs via a tracheal catheter. Total and differential white cell counts in the BALF samples were measured using a Neubaur haemocytometer. Cytospin smears of the BALF samples were prepared by centrifugation at 200 rpm for 5 min at room temperature and stained using a DiffQuik stain system (Dade Behring). Cells were counted using oil immersion microscopy.\nData for neutrophil numbers is reported as total and differential number (test substance relative to vehicle) of cells per mL of BALF, mean±S.E.M. (n=8)."}},
  "data": [
    {"smiles": "COCC(=O)Nc1cc(COc2ccc(NC(=O)Nc3cc(C(C)(C)C)nn3-c3ccc(C)cc3)c3ccccc23)ccn1", "note": "[Example 1, N-(4-((4-(3-(3-tert-Butyl-1-p-tolyl-1H-pyrazol-5-yl)ureido)naphthalen-1-yloxy)methyl)pyridin-2-yl)-2-methoxyacetamide]", "values": [
      {"measurement": "Differentiated U937 cells MTT Assay 4, 24 h (10 μg/ml)", "setting": "[1]", "value": "Negative^2"},
      {"measurement": "inhibition of LPS-induced neutrophil accumulation", "setting": "[2]", "value": "significant inhibition"}
    ]}
  ]
}
